Assay results: PubChem BioAssay AID1259411 (Chemical Carcinogenesis Research Information System (CCRIS), 2018)
Active and inactive are the calls of the source. No rule for the calls is given here.

Test system: rodent carcinogenicity bioassays, tumor incidence
Assay: CCRIS carcinogenicity studies
Settings: Dose: 0
Summary of the method: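 NCI-built, expert-reviewed records of carcinogenicity and related test outcomes (mutagenicity, tumor promotion/inhibition) compiled from published and report sources, historical span 1985-2011, not updated.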

In the case of C=CC#N, the carcinogen call (Species: RAT, Strain/Sex: SPRAGUE-DAWLEY/FEMALE, Route: GAVAGE, 5 MG/KG IN OLIVE OIL 1/D 3 D/WK FOR 52 WK (STUDY DURATION: LIFETIME)) is reported as “inactive; negative”, the carcinogen call (Species: RAT, Strain/Sex: SPRAGUE-DAWLEY/FEMALE, Route: INHALATION, 60 PPM 4 HR/D 5 D/WK FOR 7 WK THEN 7 HR/D 5 D/WK FOR 8 WK ADMINISTRATION STARTED WITH EMBRYOS ON 12TH DAY OF GESTATIO) is reported as “inactive; negative” and the carcinogen call (Species: RAT, Strain/Sex: SPRAGUE-DAWLEY/FEMALE, Route: INHALATION, 60 PPM 4 HR/D 5 D/WK FOR 7 WK THEN 7 HR/D 5 D/WK FOR 97 WK ADMINISTRATION STARTED WITH EMBRYOS ON DAY 12 OF GESTATION, Tumor Site: Type of Lesion: MAMMARY GLAND: TUMORS, LIVER: ANGIOSARCOMA, BRAIN: GLIOMA, Tumor Site: Type of Lesion: MAMMARY GLAND: TUMORS, LIVER: ANGIOSARCOMA, BRAIN: GLIOMA) is reported as “active; positive”. For the same molecule, the carcinogen call (Species: RAT, Strain/Sex: SPRAGUE-DAWLEY/FEMALE, Route: ORAL, 1, 100 PPM IN DRINKING WATER FOR 22 MO (STUDY DURATION: 20 MO), 1, 100 PPM IN DRINKING WATER FOR 22 MO (STUDY DURATION: 20 MO), Tumor Site: Type of Lesion: BRAIN: ASTROCYTOMA, ZYMBAL'S GLAND/EAR CANAL: ADENOMA OR CARCINOMA, FORESTOMACH: SQUAMOUS CELL PAPILLOMA/PAPILLOMA OR SQ, Tumor Site: Type of Lesion: BRAIN: ASTROCYTOMA, ZYMBAL'S GLAND/EAR CANAL: ADENOMA OR CARCINOMA, FORESTOMACH: SQUAMOUS CELL PAPILLOMA/PAPILLOMA OR SQ) was “active; positive”, the carcinogen call (Species: RAT, Strain/Sex: SPRAGUE-DAWLEY/MALE, Route: GAVAGE, 0.1, 10 MG/KG/D 7D/WK FOR 20 MO (STUDY DURATION: 20 MO), 0.1, 10 MG/KG/D 7D/WK FOR 20 MO (STUDY DURATION: 20 MO), Tumor Site: Type of Lesion: BRAIN: ASTROCYTOMA, ZYMBAL'S GLAND/EAR CANAL: CARCINOMA, FORESTOMACH: SQUAMOUS CELL PAPILLOMA/PAPILLOMA, SQUAMOUS CELL C, Tumor Site: Type of Lesion: BRAIN: ASTROCYTOMA, ZYMBAL'S GLAND/EAR CANAL: CARCINOMA, FORESTOMACH: SQUAMOUS CELL PAPILLOMA/PAPILLOMA, SQUAMOUS CELL C) was “active; positive” and the carcinogen call (Species: RAT, Strain/Sex: SPRAGUE-DAWLEY/MALE, Route: GAVAGE, 5 MG/KG BW IN OLIVE OIL 3/WK FOR 52 WK (STUDY DURATION: LIFETIME), Tumor Site: Type of Lesion: [BRAIN WAS ONLY SITE EVALUATED]) was “inactive; negative”. For the same molecule, the carcinogen call (Species: RAT, Strain/Sex: SPRAGUE-DAWLEY/MALE, Route: GAVAGE, 5 MG/KG IN OLIVE OIL 1/D 3 D/WK FOR 52 WK (STUDY DURATION: LIFETIME)) was “inactive; negative”, the carcinogen call (Species: RAT, Strain/Sex: SPRAGUE-DAWLEY/MALE, Route: INHALATION, 60 PPM 4 HR/D 5 D/WK FOR 7 WK THEN 7 HR/D 5 D/WK FOR 8 WK ADMINISTRATION STARTED WITH EMBRYOS ON 12TH DAY OF GESTATIO) was “inactive; negative” and the carcinogen call (Species: RAT, Strain/Sex: SPRAGUE-DAWLEY/MALE, Route: INHALATION, 60 PPM 4 HR/D 5 D/WK FOR 7 WK THEN 7 HR/D 5 D/WK FOR 97 WK ADMINISTRATION STARTED WITH EMBRYOS ON DAY 12 OF GESTATION, Tumor Site: Type of Lesion: ZYMBAL GLAND: CARCINOMA, LIVER: HEPATOMA, BRAIN: GLIOMA, Tumor Site: Type of Lesion: ZYMBAL GLAND: CARCINOMA, LIVER: HEPATOMA, BRAIN: GLIOMA) was “active; positive”. The carcinogen call (Species: RAT, Strain/Sex: SPRAGUE-DAWLEY/MALE, Route: ORAL, 1, 100 PPM IN DRINKING WATER FOR 22 MO (STUDY DURATION: 20 MO), 1, 100 PPM IN DRINKING WATER FOR 22 MO (STUDY DURATION: 20 MO), Tumor Site: Type of Lesion: BRAIN: ASTROCYTOMA, ZYMBAL'S GLAND/EAR CANAL: ADENOMA OR CARCINOMA, FORESTOMACH: SQUAMOUS CELL PAPILLOMA/PAPILLOMA OR SQ, Tumor Site: Type of Lesion: BRAIN: ASTROCYTOMA, ZYMBAL'S GLAND/EAR CANAL: ADENOMA OR CARCINOMA, FORESTOMACH: SQUAMOUS CELL PAPILLOMA/PAPILLOMA OR SQ) was “active; positive”, the carcinogen call (Species: RAT, Strain/Sex: SPRAGUE-DAWLEY/MALE, Route: ORAL, 20, 100, 500 PPM IN DRINKING WATER FOR DURATION OF STUDY (STUDY DURATION: 2 YR), 20, 100, 500 PPM IN DRINKING WATER FOR DURATION OF STUDY (STUDY DURATION: 2 YR), Tumor Site: Type of Lesion: ZYMBAL'S GLAND: TUMOR) was “active; positive” and the carcinogen call (Species: Rat, Strain/Sex: Sprague Dawley/Female (80/group, Controls; 48/group, Experimental), Route: Oral, 35, 100, 300 ppm (0; 4.4; 10.8; 25.0 mg/kg) in drinking water for 2 yr, 35, 100, 300 ppm (0; 4.4; 10.8; 25.0 mg/kg) in drinking water for 2 yr, Tumor Site: Type of Lesion: Nervous system (brain and spinal cord): Combined focal or multifocal glial cell proliferation and/or astrocytoma (1/80) was “active; positive”. The carcinogen call (Species: Rat, Strain/Sex: Sprague Dawley/Male (80/group, Controls; 48/group, Experimental), Route: Oral, 35, 100, 300 ppm (0; 3.4; 8.5; 21.3 mg/kg in drinking water for 2 yr), 35, 100, 300 ppm (0; 3.4; 8.5; 21.3 mg/kg in drinking water for 2 yr), Tumor Site: Type of Lesion: Nervous system (brain and spinal cord): Combined focal or multifocal glial cell proliferation and/or astrocytoma (1/80) was “active; positive”.
